Experimental findings from ChEMBL document CHEMBL1201862, “PubChem BioAssay data set” (2004) are described below.

Test in all cases: inhibition of tumour cell growth, NCI panel, 48 h
The subject of experiment [1] is CAKI-1.
Experiment [2] concerns SF-268.
Experiment [3] relates to SNB-19.
Experiment [4] deals with A498.
For experiment [5], the system named is MDA-MB-231.
Experiment [6] has as its system PC-3.
In experiment [7] the test system is DU-145.
Experiment [8] deals with HCT-116.
Experiment [9] has as its system SK-OV-3.
The test system of experiment [10] is Hs-578T.
In experiment [11] the test system is MDA-MB-435.
Experiment [12] deals with NCI-H226.
Experiment [13] has as its system UACC-257.
Experiment [14] concerns HL-60.
The test system of experiment [15] is NCI/ADR-RES.
Experiment [16] deals with RXF 393.
Experiment [17] deals with LOX IMVI.
Experiment [18] concerns SK-MEL-5.
Experiment [19] deals with SF-539.
Experiment [20] relates to SNB-75.

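A five-concentration, 48-hour dose response in 96-well plates underlies each endpoint, interpolated linearly between surrounding concentrations. GI50: concentration for 50% inhibition of growth.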 Calls of active or inactive are those of the source. Rule as the data show it: active = GI50 up to about 1.1 µM and inactive = higher.

For the compound `COc1cc(N(CCC#N)CCC#N)ccc1C(/N=N/c1cccc([N+](=O)[O-])c1)=N\NC(=O)c1ccc(C)cc1`, the GI50 in experiment [1], in experiment [2], in experiment [3], in experiment [4], in experiment [5] and in experiment [6] was > 100 µM (inactive) each time. The GI50 is > 100 µM (inactive) in experiment [7]; 50.5 µM (inactive) in experiment [8]; > 100 µM (inactive) in experiment [9]; > 100 µM (inactive) in experiment [10]; > 100 µM (inactive) in [11]; > 100 µM (inactive) in experiment [12]. The GI50 was 14.5 µM (inactive) in experiment [13]; 10.8 µM (inactive) in [14]; 67.5 µM (inactive) in experiment [15]; > 100 µM (inactive) in experiment [16]; > 100 µM (inactive) in experiment [17]; 59 µM (inactive) in [18].
Turning to `O=P(O)(O)CCP(=O)(O)O`, the GI50 in experiment [1], in experiment [19], in experiment [2], in [3], in experiment [4] and in [5] was > 100 µM (inactive) each time. The GI50 in experiment [6], in [7], in experiment [8], in experiment [9], in experiment [10] and in experiment [11] was > 100 µM (inactive) each time. In addition, the GI50 in [13] was 5.62 µM (inactive); in experiment [14], 61.1 µM (inactive); in experiment [15], > 100 µM (inactive); in experiment [16] it was > 100 µM (inactive); in experiment [17], > 100 µM (inactive); in [18], > 100 µM (inactive).
With `CN(C)c1ccc(C=C2N=C(c3ccccc3)N(c3cc(C(=O)c4ccccc4)ccc3N3C(=O)/C(=C/c4ccc(N(C)C)cc4)N=C3c3ccccc3)C2=O)cc1`, the GI50 in experiment [1] was 14 µM (inactive); in experiment [19], 2.34 µM (inactive); in experiment [2], 14.4 µM (inactive); in [3] it was 7.94 µM (inactive); in [4], 3.48 µM (inactive); in [5], 14.1 µM (inactive). The GI50 is 3.51 µM (inactive) in experiment [6]; 4.78 µM (inactive) in experiment [20]; 5.74 µM (inactive) in experiment [7]; 3.76 µM (inactive) in experiment [8]; 4.75 µM (inactive) in experiment [9]; 4.2 µM (inactive) in experiment [10]. Besides, the GI50 in [11] is 1.9 µM (inactive); in experiment [13], 6.43 µM (inactive); in [14] it was 5.01 µM (inactive); in [15] it was 4.06 µM (inactive); in experiment [17], 5.98 µM (inactive); in experiment [18] it was 3.42 µM (inactive).
For the compound `N=C(/C=C/c1ccc(-c2cn3cc(/C=C/C(=N)N4CCOCC4)ccc3n2)cc1)N1CCOCC1`, the GI50 in experiment [1], in experiment [19], in experiment [2], in experiment [3], in [4] and in [5] was > 100 µM (inactive) in each case. Besides, the GI50 in [6], in [20], in experiment [7], in [8], in experiment [9] and in experiment [10] was > 100 µM (inactive) each time. Also, the GI50 in experiment [11], in experiment [12], in [13], in experiment [15], in [16] and in experiment [18] was > 100 µM (inactive) each time.
Take `Br[C@@H]1[C@H]2c3nc4ccccc4nc3[C@@H]1C[C@H]2Br`: the GI50 in [1] is > 100 µM (inactive); in experiment [2], > 100 µM (inactive); in [3], > 100 µM (inactive); in experiment [4] it was 46.2 µM (inactive); in experiment [5], > 100 µM (inactive); in experiment [6] it was 68.4 µM (inactive). The GI50 was 53 µM (inactive) in experiment [7]; 59.7 µM (inactive) in experiment [8]; > 100 µM (inactive) in experiment [9]; > 100 µM (inactive) in experiment [10]; 91.2 µM (inactive) in experiment [11]; 31.3 µM (inactive) in experiment [12]. Further, the GI50 is 83.6 µM (inactive) in [13]; 32.5 µM (inactive) in [14]; 51.4 µM (inactive) in experiment [15]; 37.7 µM (inactive) in experiment [16]; > 100 µM (inactive) in [17]; 26.5 µM (inactive) in experiment [18].
For `Cc1cc(C)n(CN(Cn2nc(C)cc2C)C2CCCCC2)n1`, the GI50 in experiment [1] is 31.5 µM (inactive); in [19], 15.7 µM (inactive); in experiment [2], 33 µM (inactive); in [3], 85.1 µM (inactive); in experiment [4], > 100 µM (inactive); in experiment [5] it was 26.6 µM (inactive). The GI50 in experiment [6] is 22.9 µM (inactive); in [20] it was 17.1 µM (inactive); in [7], 24.3 µM (inactive); in [8], 22.4 µM (inactive); in experiment [9], 38 µM (inactive); in experiment [10], > 100 µM (inactive). Also, the GI50 is 22.2 µM (inactive) in [11]; 28.1 µM (inactive) in experiment [13]; 19.8 µM (inactive) in experiment [15]; 22.4 µM (inactive) in [16]; 0.0652 µM (active) in experiment [17]; 31.2 µM (inactive) in [18].
Consider `Cc1c(Cc2ccccc2)c(Cc2ccccc2)c(C)[s+]1[O-]`, for which the GI50 is 22.7 µM (inactive) in experiment [1]; 45.2 µM (inactive) in experiment [19]; 51.1 µM (inactive) in experiment [2]; 47.1 µM (inactive) in [3]; 24.5 µM (inactive) in [4]; 19.2 µM (inactive) in [5]. Moreover, the GI50 in experiment [6] is 18.8 µM (inactive); in [20] it was 20 µM (inactive); in experiment [7], 38.3 µM (inactive); in [8] it was 24.1 µM (inactive); in experiment [9], 40.3 µM (inactive); in experiment [10], 37.8 µM (inactive). Also, the GI50 in experiment [11] is 17.7 µM (inactive); in experiment [13], 19.7 µM (inactive); in [14], 12.5 µM (inactive); in experiment [15], 19.7 µM (inactive); in experiment [16], 20.6 µM (inactive); in experiment [17], 20.7 µM (inactive). Further, the GI50 in experiment [18] was 15.6 µM (inactive).
With `CCCCCCCCC/C=C1/CC(CO)(COC(=O)c2ccccc2)OC1=O` (centres undefined), the GI50 was 12.2 µM (inactive) in [1]; 20.4 µM (inactive) in experiment [19]; 15.7 µM (inactive) in [2]; 15.4 µM (inactive) in experiment [3]; 13.2 µM (inactive) in [4]; 12.6 µM (inactive) in experiment [5]. The GI50 in experiment [6] is 10.8 µM (inactive); in experiment [20], 10.2 µM (inactive); in experiment [7], 12.9 µM (inactive); in experiment [8], 23.2 µM (inactive); in experiment [9], 18.6 µM (inactive); in experiment [10] it was 3.69 µM (inactive). Moreover, the GI50 in experiment [11] is 11.1 µM (inactive); in experiment [12], 10.5 µM (inactive); in experiment [13], 14.2 µM (inactive); in [15], 15.5 µM (inactive); in experiment [16], 15.6 µM (inactive); in experiment [18] it was 3.78 µM (inactive).
Regarding `COc1ccc(/C=c2\s/c(=C3/SC(=S)N(c4ccccc4)C3=O)n(-c3ccccc3)c2=O)cc1`, the GI50 in experiment [1] is 32.9 µM (inactive); in experiment [19], 32.8 µM (inactive); in experiment [2], 0.895 µM (active); in [3], 35.4 µM (inactive); in [4], 36.6 µM (inactive); in [5], 49.3 µM (inactive). Moreover, the GI50 was > 100 µM (inactive) in experiment [6]; 4.61 µM (inactive) in [20]; > 100 µM (inactive) in [7]; > 100 µM (inactive) in experiment [8]; 12.1 µM (inactive) in [9]; 18.9 µM (inactive) in experiment [10]. Moreover, the GI50 in [11], in [14], in experiment [15], in experiment [17] and in [18] was > 100 µM (inactive) in each case.
Take `Nc1c(S(N)(=O)=O)cc(S(N)(=O)=O)cc1S(N)(=O)=O`: the GI50 was > 100 µM (inactive) in experiment [1]; > 100 µM (inactive) in [2]; > 100 µM (inactive) in experiment [3]; > 100 µM (inactive) in experiment [4]; > 100 µM (inactive) in [5]; 61.1 µM (inactive) in [6]. The GI50 in experiment [20], in [7], in experiment [8], in [9], in experiment [10] and in experiment [11] was > 100 µM (inactive) each time. Moreover, the GI50 in experiment [12], in experiment [13], in [15], in [16], in experiment [17] and in [18] was > 100 µM (inactive) each time.
As to `CCCN(CCC)C(=S)Sc1nc(C)nc(N2CCN(c3nc(C)nc(SC(=S)N(CCC)CCC)c3[N+](=O)[O-])CC2)c1[N+](=O)[O-]`, the GI50 was 9.16 µM (inactive) in [1]; 26.8 µM (inactive) in experiment [19]; 18.8 µM (inactive) in experiment [2]; 22.6 µM (inactive) in [3]; 7.69 µM (inactive) in experiment [5]; 15.2 µM (inactive) in experiment [6]. In addition, the GI50 in experiment [20] is 27.5 µM (inactive); in [7], 26.8 µM (inactive); in experiment [8], 2.03 µM (inactive); in experiment [9], 56.4 µM (inactive); in experiment [10], > 63.7 µM (inactive); in [11] it was 4.82 µM (inactive). Further, the GI50 was 21.8 µM (inactive) in experiment [12]; 15.6 µM (inactive) in experiment [13]; 3.1 µM (inactive) in [14]; 41.5 µM (inactive) in experiment [15]; 4.19 µM (inactive) in experiment [16]; 0.421 µM (active) in [17]. In addition, the GI50 in experiment [18] is 3.16 µM (inactive).
